Row | SMILES | melting point
1 | COc1ccc(-c2c(/C=C/C(=O)O)ccc3cc(OC)ccc23)cc1 | 248 to 249 °C
2 | CCCCOC(=O)NS(=O)(=O)CCc1cc(OCCCC)nn1Cc1ccc(Cl)cc1Cl | 108 to 111 °C
3 | Cc1c(CC(=O)NCCO[N+](=O)[O-])cc(-c2ccc(S(C)(=O)=O)cc2)n1-c1ccccc1 | 89 °C
4 | COC(=O)C(C)(C)OCc1cc2cc(Cl)ccc2n1S(=O)(=O)c1cc(OC)ccc1OC | 132 to 134 °C
5 | C=Cc1cc(OCOCCOC)c(OCOCCOC)c(Cl)c1Cl | 60 °C
6 | O=C(O)c1c[nH]c2c1C(=O)CCC2 | 269 to 270 °C
7 | O=S1(=O)c2cccc3cccc(c23)N1CCCN1CCC(c2ccc(Cl)cc2)CC1 | 111 °C
8 | CC(=O)OC1(C(C)=O)CCC2C3C=CC4=CC(=O)CCC4(C)C3C(F)CC21C (centres undefined) | 220 to 222 °C
9 | CC(=O)Nc1nc(C)n2c1CN=C(c1ccccc1F)c1cc(Cl)ccc1-2 | 175 to 178 °C
10 | Cc1oc2c(C)cc(C3CC(=O)OC(=O)C3)cc2c1C | 170 °C
11 | CCO[C@H]1C(C(=O)NCc2ccc(Cl)cc2)=C(C)OC(OCC)(OCC)[C@H]1C (relative stereo) | 97 to 100 °C
12 | CC(NC(=O)CNC(=O)c1ccccc1)C(C)(C)C (centres undefined) | 124 to 126 °C
13 | COC(=O)C1=C(C)NC(C)=C(S(=O)(=O)c2ccc(O)cc2)C1c1ccccc1Cl (centres undefined) | 223 to 225 °C
14 | CC(C)=CCc1cc(C=CC(=O)c2ccc(O)cc2O)ccc1O | 167 °C
15 | COC(=O)c1ccccc1Oc1ccc(C)cc1[N+](=O)[O-] | 71 to 73 °C
16 | O=C1NCCNc2c1sc1ccccc21 | 210 to 212 °C
17 | NC(=S)c1[nH]c2ccc(Cl)cc2c1S(=O)(=O)c1ccccc1 | 207 to 210 °C
18 | COc1ccc(-c2nnc(S)nc2-c2ccc(OC)cc2)cc1 | 228 to 232 °C
19 | O=C(c1cccnn1)c1ccccc1Cl | 105 to 107 °C
20 | NC(=O)CCCCc1c[nH]c2ccccc12 | 134 to 139 °C
21 | COCC#Cc1ncn2c1CN(C)C(=O)c1cc(F)ccc1-2 | 146 to 147 °C
22 | Cc1cc(C)cc(N(CCO)Cc2ccc3nc(NCCCN4CCOCC4)n(Cc4nc(C)c(C)nc4C)c3c2)c1 | 140 °C
23 | CCOC12CC(C)(C)C(O1)C(OC(=O)c1ccc(N)cc1)C=C2C (centres undefined) | 130 to 132 °C
24 | C=CCc1ccccc1OCC(O)CNC1CCc2ccccc2C1 (centres undefined) | 70 to 72 °C

Other lines, results leading:

Row | melting point | SMILES
25 | 189 to 190 °C | CN(C)C(c1ccccc1)(c1cccc(Oc2ccccc2)c1)C1CCCCC1(O)Cc1ccccc1 (centres undefined)
26 | 160 to 161 °C | N#Cc1c(O)ccc2ccccc12
27 | 222 to 223 °C | N#Cc1ccc(-c2ccc(C#N)c(Cn3cncn3)c2)cc1
28 | 77 to 79 °C | CC(C)c1cccc(C(C)C)c1NC(=O)CN1CCCN(CCCSc2nc3cccc(C(F)(F)F)c3o2)CC1
29 | 139 to 140 °C | Cn1ncc2c1-c1c(Oc3ccc(OCc4ccc5ccccc5n4)cc3)sc(C(N)=O)c1CC2
30 | 92 to 105 °C | C=CCNc1cc(C)nc2c(-c3ccccc3)n[nH]c12
31 | 60 °C | c1cc(OCC2CO2)c2cn[nH]c2c1 (centres undefined)
32 | 217 to 218 °C | C=C(C)C(=O)NCC(=O)Nc1cc(Cl)c(C)c(Cl)c1O
33 | > 280 °C | CNc1c(F)c(O)c2c(=O)c(C(=O)O)cn(-c3cc(N)c(F)cc3F)c2c1C
34 | 211 to 213 °C | CCc1n[nH]c2cc(-c3ccc4nnn(Cc5ccc6ncccc6c5)c4n3)ccc12
35 | 100 to 103 °C | COC(=O)CN(c1ccc(OC)cc1OC)S(N)(=O)=O
36 | 266 to 270 °C | O=C(Nc1ccc(C(F)(F)F)cc1)NC1CCN(S(=O)(=O)c2ccc(Cl)cc2)CC1
37 | 165 to 169 °C | Cn1c(-c2ccc(-n3ccnc3)cc2)cnc1[C@H](Cc1ccccn1)N(C=O)c1cc2ccc(Cl)cc2o1
38 | 248 to 251 °C | Nc1cccc2c1NC(=O)C2
39 | 206 to 210 °C | O=C(O)CCCc1cc2cc(Cl)ccc2n1S(=O)(=O)c1cccc2ccccc12

From a melting point compilation (Tetko et al.; mined from patent text by program, amines drawn as free bases though some values may be those of a salt)
